Experimental data as given in the NIST ThermoML archive (doi:10.1021/je800894y).
Numbers after ± are expanded uncertainties.

Assay: xn = mol fraction of the nth substance listed
Settings: Liquid; for viscosity: Vibrating wire viscometry; for mass density: vibrating-wire apparatus

CC(C)CCCC(C)CCCC(C)CCCCC(C)CCCC(C)CCCC(C)C (stereo unspecified) [2,6,10,15,19,23-hexamethyltetracosane] + O=C=O
Settings | mass density [kg/m3] | viscosity [mPa·s]
303.15 K, 10060 kPa, x2 = 0.4233 | 814.8 ± 1.6 | 9.12 ± 0.19
303.15 K, 10070 kPa, x2 = 0.4233 | 815.3 ± 1.6 | 9.17 ± 0.19
303.15 K, 30380 kPa, x2 = 0.4233 | 828 ± 1.7 | 12.7 ± 0.3
303.15 K, 50510 kPa, x2 = 0.4233 | 839.2 ± 1.7 | 17.3 ± 0.4
303.15 K, 70400 kPa, x2 = 0.4233 | 849.3 ± 1.7 | 23 ± 0.5
303.15 K, 90250 kPa, x2 = 0.4233 | 856.5 ± 1.7 | 30.5 ± 0.6
303.15 K, 110380 kPa, x2 = 0.4233 | 862.1 ± 1.7 | 40.1 ± 0.8
303.15 K, 130280 kPa, x2 = 0.4233 | 867.8 ± 1.7 | 52.3 ± 1.1
303.15 K, 150080 kPa, x2 = 0.4233 | 869.4 ± 1.7 | 67.8 ± 1.4
303.15 K, 170210 kPa, x2 = 0.4233 | 882.8 ± 1.8 | 85.9 ± 1.9
303.17 K, 30190 kPa, x2 = 0.7882 | 854.3 ± 1.7 | 2.36 ± 0.05
303.17 K, 30740 kPa, x2 = 0.7882 | 847.4 ± 1.7 | 2.24 ± 0.05
303.17 K, 50100 kPa, x2 = 0.7882 | 863.4 ± 1.7 | 2.79 ± 0.06
303.17 K, 70730 kPa, x2 = 0.7882 | 877.8 ± 1.8 | 3.43 ± 0.07
303.17 K, 90490 kPa, x2 = 0.7882 | 890 ± 1.8 | 4.15 ± 0.09
303.17 K, 110640 kPa, x2 = 0.7882 | 901.1 ± 1.8 | 4.95 ± 0.1
303.17 K, 130570 kPa, x2 = 0.7882 | 911 ± 1.8 | 5.91 ± 0.12
303.17 K, 151340 kPa, x2 = 0.7882 | 922.8 ± 1.8 | 6.94 ± 0.14
303.17 K, 170570 kPa, x2 = 0.7882 | 934.8 ± 1.9 | 8.13 ± 0.17
303.18 K, 10600 kPa, x2 = 0.6039 | 823.9 ± 1.6 | 4.92 ± 0.1
303.18 K, 30810 kPa, x2 = 0.6039 | 838.1 ± 1.7 | 6.58 ± 0.14
303.18 K, 50820 kPa, x2 = 0.6039 | 850.4 ± 1.7 | 8.58 ± 0.18
303.18 K, 70800 kPa, x2 = 0.6039 | 861 ± 1.7 | 11 ± 0.2
303.18 K, 91100 kPa, x2 = 0.6039 | 871.1 ± 1.7 | 14 ± 0.3
303.18 K, 100670 kPa, x2 = 0.6039 | 874.8 ± 1.8 | 15.6 ± 0.3
303.18 K, 111110 kPa, x2 = 0.6039 | 879.9 ± 1.8 | 17.5 ± 0.4
303.18 K, 130850 kPa, x2 = 0.6039 | 888.1 ± 1.8 | 21.7 ± 0.4
303.18 K, 150500 kPa, x2 = 0.6039 | 897.9 ± 1.8 | 26.5 ± 0.5
303.18 K, 170440 kPa, x2 = 0.6039 | 910.5 ± 1.8 | 32 ± 0.7
348.11 K, 10450 kPa, x2 = 0.6039 | 787.7 ± 1.6 | 1.92 ± 0.04
348.11 K, 10480 kPa, x2 = 0.6039 | 788.1 ± 1.6 | 1.92 ± 0.04
348.11 K, 30310 kPa, x2 = 0.6039 | 806 ± 1.6 | 2.49 ± 0.05
348.11 K, 50270 kPa, x2 = 0.6039 | 820.7 ± 1.6 | 3.13 ± 0.06
348.11 K, 70180 kPa, x2 = 0.6039 | 833.3 ± 1.7 | 3.85 ± 0.08
348.11 K, 90320 kPa, x2 = 0.6039 | 844.4 ± 1.7 | 4.68 ± 0.1
348.11 K, 110880 kPa, x2 = 0.6039 | 854.6 ± 1.7 | 5.64 ± 0.12
348.11 K, 130860 kPa, x2 = 0.6039 | 863.7 ± 1.7 | 6.7 ± 0.14
348.11 K, 150870 kPa, x2 = 0.6039 | 872.1 ± 1.7 | 7.9 ± 0.16
348.11 K, 170910 kPa, x2 = 0.6039 | 879.8 ± 1.8 | 9.28 ± 0.19
348.25 K, 10070 kPa, x2 = 0.4233 | 783.6 ± 1.6 | 2.99 ± 0.06
348.25 K, 10100 kPa, x2 = 0.4233 | 783.4 ± 1.6 | 2.98 ± 0.06
348.25 K, 30390 kPa, x2 = 0.7882 | 806 ± 1.6 | 1.08 ± 0.04
348.25 K, 30440 kPa, x2 = 0.4233 | 799.2 ± 1.6 | 3.95 ± 0.08
348.25 K, 30610 kPa, x2 = 0.7882 | 806.9 ± 1.6 | 1.07 ± 0.03
348.25 K, 50540 kPa, x2 = 0.7882 | 827 ± 1.7 | 1.34 ± 0.03
348.25 K, 50590 kPa, x2 = 0.4233 | 812.2 ± 1.6 | 5.1 ± 0.11
348.25 K, 70530 kPa, x2 = 0.4233 | 823.5 ± 1.6 | 6.42 ± 0.13
348.25 K, 70650 kPa, x2 = 0.7882 | 844 ± 1.7 | 1.61 ± 0.03
348.25 K, 90610 kPa, x2 = 0.4233 | 833.7 ± 1.7 | 7.98 ± 0.16
348.25 K, 90680 kPa, x2 = 0.7882 | 858.4 ± 1.7 | 1.91 ± 0.04
348.25 K, 110350 kPa, x2 = 0.7882 | 870.8 ± 1.7 | 2.22 ± 0.05
348.25 K, 110610 kPa, x2 = 0.4233 | 842.8 ± 1.7 | 9.83 ± 0.2
348.25 K, 130400 kPa, x2 = 0.4233 | 851.3 ± 1.7 | 11.9 ± 0.3
348.25 K, 130530 kPa, x2 = 0.7882 | 882.3 ± 1.8 | 2.57 ± 0.05
348.25 K, 150600 kPa, x2 = 0.7882 | 892.7 ± 1.8 | 2.94 ± 0.06
348.25 K, 150670 kPa, x2 = 0.4233 | 859.3 ± 1.7 | 14.5 ± 0.3
348.25 K, 169670 kPa, x2 = 0.4233 | 866.3 ± 1.7 | 17.3 ± 0.4
348.25 K, 170310 kPa, x2 = 0.7882 | 902 ± 1.8 | 3.34 ± 0.07
